According to patent publication US8114865B2, “Indazole derivatives as kinase inhibitors for the treatment of cancer” (Nerviano Medical Sciences S.R.L., priority 2006, dated 2012):

Key:
[1] = target: T1, IGF-1R (Homo sapiens, UniProt P08069); test: Western blot analysis of receptor phosphorylation following stimulation with IGF-1 in MCF-7 human breast cancer cells; assay type: cell-based; design: endogenous in cells; host or cells: MCF-7 (ATCC# HTB-22); details: starved MCF7 cells, 10 nM IGF1, increasing concentrations of compound, FIG. 1
Method: [formula] where νb is the baseline velocity, v is the observed reaction velocity, vo is the velocity in the absence of inhibitors, and [I] is the inhibitor concentration. Cell-Based Assays for Inhibitors of IGF-1R Kinase Activity Western Blot Analysis of Receptor Phosphorylation Following Stimulation with IGF-1 in MCF-7 Human Breast Cancer Cells
MCF-7 cells (ATCC# HTB-22) were seeded in 12-well tissue culture plates at 2×10^5 cells/well in E-MEM medium (MEM+Earle's BSS+2 mM glutamine+0.1 mM non-essential amino acids)+10% FCS, and incubated overnight at 37° C., 5% CO2, 100% relative humidity. Cells were then starved by replacing E-MEM+10% FCS with E-MEM+0.1% BSA, and incubating overnight. After this incubation, wells were treated with desired concentrations of compound for 1 hour at 37° C., and were then stimulated with 10 nM recombinant human IGF-1 (Invitrogen, Carlsbad, Calif., USA) for 10 minutes at 37° C. Cells were then washed with PBS and lysed in 100 microL/well cell lysis buffer (M-PER Mammalian Protein Extraction Reagent [Product #78501, Pierce, Rockford, Ill., USA]+10 mM EDTA+Protease inhibitor cocktail [Sigma-Aldrich product #P8340]+phosphatase inhibitor cocktail [Sigma-Aldrich products #P2850+#P5726]). Cell lysates were cleared by centrifugation at 10,000×g for 5 minutes, and 10 microg/lane of cleared lysate protein were run on NuPAGE gels (NuPAGE 4-12% 10-lane Bis-Tris gels, Invitrogen) with MOPS running buffer, then transferred onto Hybond-ECL nitrocellulose filters (Amersham Biosciences, Little Chalfont, Buckinghamshire, UK) using Mini PROTEAN II chambers (Bio-Rad Laboratories, Hercules, Calif., USA). […]
Target sequence in this assay (P08069 31-1367): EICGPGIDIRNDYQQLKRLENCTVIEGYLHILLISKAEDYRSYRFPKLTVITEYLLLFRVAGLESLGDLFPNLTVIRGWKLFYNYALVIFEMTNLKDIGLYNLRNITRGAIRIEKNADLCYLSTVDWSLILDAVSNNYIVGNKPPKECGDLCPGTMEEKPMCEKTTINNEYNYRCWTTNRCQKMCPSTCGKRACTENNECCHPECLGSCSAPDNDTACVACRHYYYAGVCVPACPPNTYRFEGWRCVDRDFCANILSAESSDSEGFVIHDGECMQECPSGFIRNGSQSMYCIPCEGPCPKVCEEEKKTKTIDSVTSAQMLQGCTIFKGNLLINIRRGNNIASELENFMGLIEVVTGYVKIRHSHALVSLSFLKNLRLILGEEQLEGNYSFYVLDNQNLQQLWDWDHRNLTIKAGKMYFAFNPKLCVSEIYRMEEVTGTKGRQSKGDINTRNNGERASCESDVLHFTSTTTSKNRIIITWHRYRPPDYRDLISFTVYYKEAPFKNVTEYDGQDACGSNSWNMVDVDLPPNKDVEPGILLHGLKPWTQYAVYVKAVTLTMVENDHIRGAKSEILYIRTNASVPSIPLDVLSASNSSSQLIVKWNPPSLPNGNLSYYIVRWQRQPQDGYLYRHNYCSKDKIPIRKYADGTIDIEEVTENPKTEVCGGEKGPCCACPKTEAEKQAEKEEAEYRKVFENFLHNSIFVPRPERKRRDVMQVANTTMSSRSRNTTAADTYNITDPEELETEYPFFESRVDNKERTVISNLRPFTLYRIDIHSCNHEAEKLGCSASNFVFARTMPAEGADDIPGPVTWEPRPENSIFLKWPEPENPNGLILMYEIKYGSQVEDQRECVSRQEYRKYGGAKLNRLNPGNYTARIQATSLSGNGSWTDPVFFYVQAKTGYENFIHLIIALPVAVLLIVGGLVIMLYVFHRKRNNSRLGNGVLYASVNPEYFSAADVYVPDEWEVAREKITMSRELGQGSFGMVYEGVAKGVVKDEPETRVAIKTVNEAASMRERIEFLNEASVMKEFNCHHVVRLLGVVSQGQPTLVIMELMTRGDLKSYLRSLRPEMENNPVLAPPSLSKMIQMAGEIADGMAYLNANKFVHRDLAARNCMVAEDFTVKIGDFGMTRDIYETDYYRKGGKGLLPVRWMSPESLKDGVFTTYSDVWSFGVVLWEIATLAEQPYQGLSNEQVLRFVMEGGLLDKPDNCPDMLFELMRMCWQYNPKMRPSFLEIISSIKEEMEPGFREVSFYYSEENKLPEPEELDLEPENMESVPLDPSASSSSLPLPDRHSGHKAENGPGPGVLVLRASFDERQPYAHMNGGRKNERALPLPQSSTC

[2] = target: T1, IGF-1R; test: Biochemical assay for inhibitors of IGF-1R kinase activity (trans-phosphorylation, Dowex); design: amino acid residues 960-1367 of precursor protein; made in house; host or cells: H5 insect cells (baculovirus; virus generated in Sf21); details: read-out: IGF1R IC50
Method: Human cDNA was used as template for amplification by polymerase chain reaction (PCR) of the predicted cytoplasmic portion of IGF-1R (amino acid residues 960-1367 of precursor protein; see NCBI Entrez Protein Accession #P08069) which includes the entire kinase domain. PCR was conducted using the forward primer sequence 5′-[…]-3′ [SEQ ID NO: 1] and the reverse primer sequence 5′-[…]-3′[SEQ ID NO: 2].
In order to facilitate subsequent cloning steps, both primers comprise a BamHI restriction endonuclease site sequence. This PCR product was cloned in frame using BamHI sticky ends into a transfer vector for the baculovirus expression system, pVL1392 (Pharmingen), previously modified by insertion into the pVL1392 multiple cloning site of sequences encoding Glutathione S-transferase (GST) fusion protein, PreScission protease cleavage site and partial MCS cassette derived from the pGex-6P plasmid (Amersham BioSciences). Insertion of the IGF-1R PCR product described above into the pGex-6P derived BamHI site of the modified pVL1392 vector results in an open reading frame corresponding to the pGEX-6P GST protein and PreScission peptide fused with the human IGF-1R cytoplasmic domain. In order to obtain fusion protein, Sf21 insect cells (Invitrogen) are cotransfected with 2 microg of purified plasmid and 1 microg of virus DNA (BaculoGold™ Transfection Kit, Pharmingen), as described in the Baculovirus Instruction manual (Pharmingen). A first amplification of the virus is performed using 600 microL of cotransfected virus on 6×10^6 Sf21 in a monolayer culture, in 12 mL of medium (TNM-FH Grace's medium—Pharmingen). After 3 days the medium is collected, centrifuged and transferred to a sterile tube. A second amplification is prepared with the same method using 2 mL on 3×10^7 cells, diluted in 40 mL of medium. For the third amplification of virus, 1 mL of supernatant from the second round are used per 3×10^7 cells diluted in 40 mL of medium. […]
The inhibitory activity of putative kinase inhibitors and the potency of selected compounds were determined using a trans-phosphorylation assay. […]
Target sequence in this assay (P08069 960-1367): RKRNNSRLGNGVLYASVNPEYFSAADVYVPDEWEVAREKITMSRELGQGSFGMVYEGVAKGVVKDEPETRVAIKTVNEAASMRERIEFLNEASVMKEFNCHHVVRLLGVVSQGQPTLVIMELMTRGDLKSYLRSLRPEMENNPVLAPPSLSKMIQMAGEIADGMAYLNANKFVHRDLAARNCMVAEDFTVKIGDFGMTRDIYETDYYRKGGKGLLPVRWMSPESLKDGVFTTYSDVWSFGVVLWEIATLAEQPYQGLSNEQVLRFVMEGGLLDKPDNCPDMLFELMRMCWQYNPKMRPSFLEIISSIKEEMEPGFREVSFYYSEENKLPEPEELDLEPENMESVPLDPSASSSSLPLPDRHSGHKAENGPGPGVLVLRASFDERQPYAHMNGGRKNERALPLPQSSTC

Structure (SMILES)	inhibition of IGF1-induced IGF1R auto-phosphorylation [1]	IC50 [2]
CN1CCN(c2ccc(C(=O)Nc3n[nH]c4ccc(S(=O)(=O)c5ccccc5)cc34)cc2)CC1 [Compound 1, N-(5-Benzenesulfonyl-1H-indazol-3-yl)-4-(4-methyl-piperazin-1-yl)-benzamide]	inhibition of IGF1-induced IGF1R auto-phosphorylation	850 nM
CN1CCN(c2ccc(C(=O)Nc3n[nH]c4ccc(S(=O)(=O)c5ccccc5)cc34)c(NC(=O)[C@@H]3CCCO3)c2)CC1 [Compound 36, (S)-Tetrahydro-furan-2-carboxylic acid [2-(5-benzenesulfonyl-1H-indazol-3-ylcarbamoyl)-5-(4-methyl-piperazin-1-yl)-phenyl]-amide]	inhibition of IGF1-induced IGF1R auto-phosphorylation	230 nM
CN1CCN(c2ccc(C(=O)Nc3n[nH]c4ccc(S(=O)(=O)c5ccccc5)cc34)c(NC(=O)c3ccc[nH]3)c2)CC1 [Compound 33, 1H-pyrrole-2-carboxylic acid [2-(5-benzenesulfonyl-1H-indazol-3-ylcarbamoyl)-5-(4-methyl-piperazin-1-yl)-phenyl]amide]	inhibition of IGF1-induced IGF1R auto-phosphorylation	36 nM
